Test results from US4997835A, “Substituted 2-acylpyridine-α-(N)-hetarlyhydrazones and medicaments containing the same” (priority 1987, dated 1991).
Converted amounts (≈) assume the structure as drawn. Like-named read-outs stand apart in the source and are kept apart here.

Assays:
[1] = system: Mycobacterium marinum SN 1254; experiment: Minimum inhibiting concentration, M. marinum SN1254; assay type: cell-based
[2] = system: Mycobacterium avium Patient Strain (Birk); experiment: Minimum inhibiting concentration, M. avium Patient Strain (Birk); assay type: cell-based; details: Mycobacterium avium, M. avium Patient str., read-out: Minimum inhibiting concentration
[3] = system: Mycobacterium lufu; experiment: Minimum inhibiting concentration, M. lufu L 209; assay type: cell-based; details: Mycobacterium lufu
[4] = system: Mycobacterium tuberculosis H 37 RV; experiment: Minimum inhibiting concentration, M. tuberculosis H37RV; assay type: cell-based; details: Mycobacterium tuberculosis; M. tub. H37RV
Procedure: The minimum inhibiting concentration of the commercially available and inventive substances given in Table 2 was determined according to the known standard process ("Methods for sensitivity testing of bacterial infectious germs", DIN 58940, part 5).
The determination was carried out on the following bacterial cultures:
2. Mycobacterium tuberculosis H 37 RV, FIB 2-85 JS
For culturing the bacterial cultures use was made of nutrient substrates according to Gottsacker and Lowenstein Jensen and culture media according to Lockemann or Dubos-Davis (cf. "Detection processes for mycobacteria from test material, III, culture medium formulations for culturing tuberculosis bacteria", 1978, Publisher: Deutsches Zentralkomitee zur Bekampfung der Tuberculose, Poppenhusenstrasse 14c, 2000 Hamburg 60).
In each case 5×10^-3 to 5×10^-5 mg, based on the wet weight, of the mycobacterial strains were incubated in 2 ml of culture fluid (Lockemann +0.5 wt/vol. % bovine serum albumen fraction 5) at 31° C. with a graded concentration of the particular inhibitor (dilution series). The culture tubes were read off after 8 to 15 days, as a function of the bacterial strain.
The MIC is the inhibitor concentration in μMol/l at which no propagation of the sewn cells is observed.

[5] = system: M. leprae; experiment: Propagation of M. leprae in mouse paws; assay type: in vivo; details: two months in feed; DDS 0.0001%, Rifampicin 0.001%, K-130 0.01%, Brodimoprim 0.01%, PH 22-26 0.05%
Procedure: The therapeutic action was determined as a reduction of the number of acid-resistant bacteria in the mouse paw according to C. C. Shepard, J. Experim. Met., 112, p. 445, 1960.
It is possible to detect the synergistic effect of the combinations, even under in vivo conditions.

[6] = system: M. leprae; experiment: In vitro propagation of M. leprae, thymidine incorporation; assay type: cell-based; details: Mycobacterium leprae, read-out: % Reduction Thymidine incorporation; for inhibition of growth at 10000 µg/mL: 10 mg/ml
Procedure: The inhibiting action was determined as a reaction of the thymidine absorption and the ATP content in M. Leprae suspensions, in the manner described by A. M. Dhople, Med. Sci. Res., 15, p.

[7] = system: Mycobacterium smegmatis ATCC 607; experiment: Minimum inhibiting concentration, M. smegmatis ATCC 607; assay type: cell-based; details: Mycolicibacterium smegmatis
[8] = system: Sierra Leone D-6 (parasitic malaria strain); experiment: Growth of malaria strain Sierra Leone D-6; assay type: cell-based; details: for IC50: read-out: I50; for IC90: read-out: I90
Description: (§1) Determination of the semimaximum inhibiting concentration (I50) of typical representatives of the inventive compounds for the growth of parasitic malaria strains:
(§2) The determination took place according to the standard process (cf. WHO determination process).
(§3) The process according to Example 35 was repeated with the difference that the semimaximum inhibiting concentration of combinations of the inventive compound PH 22 with (2), (3) inhibitors of dihydrofolic acid reductase, (4) inhibitors of folate synthase and dihydrofolic acid reductase and (5), (6) inhibitors of DNA-synthesis were determined.

[9] = system: Indochina W-2 (parasitic malaria strain); experiment: Growth of malaria strain Indochina W-2; assay type: cell-based; details: for IC50: read-out: I50; for IC90: read-out: I90
Description: as §1, §2, §3

[10] = M. marin. SN1254, read-out: Minimum inhibiting concentration
[11] = ATCC607, M. smegm. ATCC 607, read-out: Minimum inhibiting concentration

Compound | MIC [1, 10] [µM] | MIC [3] [µM] | MIC [4] [µM] | MIC [7, 11] [µM] | other results
COc1cc(Cc2cnc(N)nc2N)cc(OC)c1Br [Brodimoprim, brodimoprim, reference compound] | 18 (≈ 6.11 µg/mL) | 80 (≈ 27.1 µg/mL) | 94 (≈ 31.9 µg/mL) |  | MIC ([2]; values marked *): > 100 µg/mL; % Inhibition of propagation of M. leprae in mouse paws [5]: 3%
Nc1ccc(S(=O)(=O)c2ccc(N)cc2)cc1 [DDS, 4,4'-diaminodiphenylsulphone] |  |  |  |  | inhibition of growth at 5000 µg/mL ([6]; 5 mg/ml): 0%; inhibition of growth at 10000 µg/mL [6]: 5%; % Inhibition of propagation of M. leprae in mouse paws [5]: 14%
COc1cc(Cc2cnc(N)nc2N)cc(OC)c1OCCCNc1ccc(S(=O)(=O)c2ccc(N)cc2)cc1 [K-130, 2,4-diamino-5-{4-[3-(4'-aminophenyl-4-sulphonylphenylamino)-propoxy]-3,5-dimethoxybenzyl}-pyrimidine] |  |  |  |  | inhibition of growth at 10000 µg/mL [6]: 0%; inhibition of growth at 20000 µg/mL ([6]; 20 mg/ml): 65%; % Inhibition of propagation of M. leprae in mouse paws [5]: 56%
C(=NNc1nncc2ccccc12)c1ccccn1 [PH 22-1, pyridine-2-aldehyde-1'-phthalazinylhydrazone] |  | 12.1 (≈ 3.02 µg/mL) | 49 (≈ 12.2 µg/mL) | 49 (≈ 12.2 µg/mL) | 
CC(=NNc1nncc2ccccc12)c1ccccn1 [PH 22-3, 2-acetylpyridine-1'-phthalazinylhydrazone] | 22 (≈ 5.79 µg/mL) | 6.6 (≈ 1.74 µg/mL) | 31 (≈ 8.16 µg/mL) | 44 (≈ 11.6 µg/mL) | MIC [2]: 53 µM
CCc1ccc(C=NNc2nncc3ccccc23)nc1 [PH 22-5, 5-ethylpyridine-2-aldehyde-1'-phthalazinylhydrazone] | 10.4 (≈ 2.88 µg/mL) | 14.5 (≈ 4.02 µg/mL) | 16.6 (≈ 4.6 µg/mL) | 67 (≈ 18.6 µg/mL) | 
C(=NNc1nncc2ccccc12)c1ccc(OCc2ccccc2)cn1 [PH 22-6, 5-benzyloxypyridine-2-aldehyde-1'-phthalazinylhydrazone] | 7 (≈ 2.49 µg/mL) | 5.6 (≈ 1.99 µg/mL) | 8.5 (≈ 3.02 µg/mL) | 40 (≈ 14.2 µg/mL) | MIC [2]: 7 µM
Cc1ccnc(C=NNc2nncc3ccccc23)c1 [PH 22-8, 4-methyl-pyridine-2-aldehyde-1'-phthalazinylhydrazone] | 22 (≈ 5.79 µg/mL) | 31 (≈ 8.16 µg/mL) | 18 (≈ 4.74 µg/mL) | 44 (≈ 11.6 µg/mL) | 
Cc1cccc(C=NNc2ccccn2)n1 [PH 22-10, 6-methyl pyridine-2-aldehyde-pyridylhydrazone] |  | 8.3 (≈ 1.76 µg/mL) | 47 (≈ 9.98 µg/mL) | 33 (≈ 7 µg/mL) | 
Clc1cccc(C=NNc2ccccn2)n1 [PH 22-11, 6-chloropyridine-2-aldehyde-2'-pyridylhydrazone] |  | 43 (≈ 10 µg/mL) | 86 (≈ 20 µg/mL) | 56 (≈ 13 µg/mL) | IC50 [8]: 13.1 µM; IC90 [8]: 25.7 µM; IC50 [9]: 8.9 µM; IC90 [9]: 23 µM
CCc1ccc(C=NNc2ccccn2)nc1 [PH 22-13, 5-ethyl-pyridine-2-aldehyde-2'-pyridylhydrazone] | 44 (≈ 9.96 µg/mL) | 53 (≈ 12 µg/mL) | 22 (≈ 4.98 µg/mL) | 22 (≈ 4.98 µg/mL) | 
Cc1ccc(C=NNc2ccc3ccccc3n2)nc1 [PH 22-14, 5-methyl-pyridine-2-aldehyde-2'-quinolylhydrazone] | 5.7 (≈ 1.5 µg/mL) | 3.8 (≈ 0.997 µg/mL) | 1.2 (≈ 0.315 µg/mL) | 9.5 (≈ 2.49 µg/mL) | 
Cc1ccc(C=NNc2nncc3ccccc23)nc1 [PH 22-16, 5-methyl-pyridine-2-aldehyde-1'-phthalazinylhydrazone] | 76 (≈ 20 µg/mL) | 4.8 (≈ 1.26 µg/mL) | 1.4 (≈ 0.369 µg/mL) | 5.7 (≈ 1.5 µg/mL) | 
CC(=O)Nc1ccnc(C=NNc2ccccn2)c1 [PH 22-17, 4-acetylamino-pyridine-2-aldehyde-2'-pyridylhydrazone] |  | 94 (≈ 24 µg/mL) | > 125 |  | IC50 [8]: 0.6 µM; IC90 [8]: 1.1 µM; MIC ([1]; SN1254, read-out: Minimum inhibiting concentration): > 125 µM; IC50 [9]: 0.5 µM; IC90 [9]: 2.3 µM; MIC ([7]; ATCC607, read-out: Minimum inhibiting concentration): > 125 µM
CC(=O)Nc1ccnc(C=NNc2nncc3ccccc23)c1 [PH 22-18, 4-acetylaminopyridine-2-aldehyde-1'-phthalazinylhydrazone] | 92 (≈ 28.2 µg/mL) | 22.9 (≈ 7.01 µg/mL) | 46 (≈ 14.1 µg/mL) | 65 (≈ 19.9 µg/mL) | 
CC(=O)Nc1ccnc(C=NNc2ccc3ccccc3n2)c1 [PH 22-19, 4-acetylaminopyridine-2-aldehyde-2'-quinolylhydrazone] | 11.5 (≈ 3.51 µg/mL) | 32.9 (≈ 10 µg/mL) | 11.5 (≈ 3.51 µg/mL) | 9.8 (≈ 2.99 µg/mL) | 
CC(=O)Nc1ccnc(C(C)=NNc2nncc3ccccc23)c1 [PH 22-20, 4-acetylamino-2-acetylpyridine-1'-phthalazinylhydrazine] | 88 (≈ 28.2 µg/mL) | 12.5 (≈ 4 µg/mL) | 10.9 (≈ 3.49 µg/mL) | 15.6 (≈ 5 µg/mL) | 
c1ccc(C(=NNc2nncc3ccccc23)c2ccccn2)cc1 [PH 22-22, 2-benzoylpyridine-1'-phthalazinylhydrazone] | 10.8 (≈ 3.51 µg/mL) | 2.3 (≈ 0.748 µg/mL) | 18.5 (≈ 6.02 µg/mL) | 12.3 (≈ 4 µg/mL) | MIC [2]: 86 µM
Nc1ccnc(C=NNc2nncc3ccccc23)c1 [PH 22-23, 4-aminopyridine-2-aldehyde-1'-phthalazinylhydrazine] | 38 (≈ 10 µg/mL) | 26.5 (≈ 7 µg/mL) | 13.3 (≈ 3.52 µg/mL) | 13.3 (≈ 3.52 µg/mL) | 
CC(=NNc1nncc2ccccc12)c1cc(N)ccn1 [PH 22-24, 2-acetyl-4-aminopyridine-1'-phthalazinylhydrazine] | 18 (≈ 5.01 µg/mL) | 2.2 (≈ 0.612 µg/mL) | 4.5 (≈ 1.25 µg/mL) | 4.5 (≈ 1.25 µg/mL) | 
C(=NNc1nccc2ccccc12)c1ccccn1 [PH 22-27, pyridine-2-aldehyde-1'-isoquinolylhydrazone] | 16.1 (≈ 4 µg/mL) | 6 (≈ 1.49 µg/mL) | 8.1 (≈ 2.01 µg/mL) | 12.1 (≈ 3 µg/mL) | 
CC(O)CN(C)c1ccc(NN=Cc2ccccn2)nn1 (centres unmarked) [PH 22-28, pyridine-2-aldehyde-6'-(N-methyl-N-2"-hydroxypropyl)-amino-3'-pyridazinylhydrazone] | 70 (≈ 20 µg/mL) | 35 (≈ 10 µg/mL) | 140 (≈ 40.1 µg/mL) |  | 
Clc1cccc(NN=Cc2ccccn2)n1 [PH 22-29, pyridine-2-aldehyde-6'-chloro-2'-pyridylhydrazone] | 6.5 (≈ 1.51 µg/mL) | 3.2 (≈ 0.745 µg/mL) | 1.6 (≈ 0.372 µg/mL) |  | MIC [2]: 60 µM
Clc1ccc(NN=Cc2ccccn2)nc1 [PH 22-30, pyridine-2-aldehyde-5'-chloro-2'-pyridylhydrazone] | 5.4 (≈ 1.26 µg/mL) | 2.7 (≈ 0.628 µg/mL) | 1.3 (≈ 0.302 µg/mL) |  | MIC [2]: 13 µM
Cc1cccc(NN=Cc2ccccn2)n1 [PH 22-31, pyridine-2-aldehyde-2'-(6'-methyl)-pyridylhydrazone] | 8.3 (≈ 1.76 µg/mL) | 3.5 (≈ 0.743 µg/mL) | 1.8 (≈ 0.382 µg/mL) |  | MIC [2]: 57 µM
CC(=NNc1cc(Cl)ncn1)c1ccccn1 [PH 22-32] | 28.3 (≈ 7.01 µg/mL) | 1.3 (≈ 0.322 µg/mL) | 6.1 (≈ 1.51 µg/mL) |  | 
CCc1ccc(C=NNc2cc(OC)ncn2)nc1 [PH 22-33, 5-ethylpyridine-2-aldehyde-6'-methoxy-4'-pyrimidylhydrazone] | 4.9 (≈ 1.26 µg/mL) | 1.5 (≈ 0.386 µg/mL) | 2.4 (≈ 0.618 µg/mL) |  | 
CC(=NNc1ncnc2ccccc12)c1ccccn1 [PH 22-34, 2-acetylpyridine-4'-quinazolylhydrazone] | 64 (≈ 16.9 µg/mL) | < 1 | 12 (≈ 3.16 µg/mL) |  | 
CN(N=Cc1ccccn1)c1cc(Cl)ncn1 [PH 22-36, pyridine-2-aldehyde-6'-chloro-4'-pyrimidyl-(N1-methyl)-hydrazone] | 119 (≈ 29.5 µg/mL) | 5.3 (≈ 1.31 µg/mL) | 136 (≈ 33.7 µg/mL) |  | 
C(=NNc1ccccn1)c1nccc2ccccc12 [PH 22-37, isoquinoline-1-aldehyde-2'-pyridyl hydrazone] | 6 (≈ 1.49 µg/mL) | 12.1 (≈ 3 µg/mL) | 3 (≈ 0.745 µg/mL) | 6 (≈ 1.49 µg/mL) | 
